# Data from patent US9617242B2, “Histone demethylase inhibitors” (priority 2012, dated 2017).
# Counter-ions that a name gives are not always drawn. Like-named read-outs stand apart in the source and are kept apart here.
# Assays:
# Jarid1B = Jarid1B (Homo sapiens (Human), UniProt Q9UGL1); test: Jarid1B in vitro enzyme inhibition assay (TR-FRET); format: biochemical
# Jarid1A = Jarid1A (Homo sapiens (Human), UniProt P29375); test: Jarid1A in vitro enzyme inhibition assay (TR-FRET); format: biochemical
# JMJD2C = JMJD2C (Homo sapiens (Human), UniProt Q9H3R0); test: JMJD2C in vitro enzyme inhibition assay (TR-FRET); format: biochemical
# KDM5A/B = test: In vitro cell-based assay: tri-methyl H3K4 immuno-blotting in ZR-75-1 breast cancer cells
# Protocol: This quantitative immuno-blotting assay measures the amount tri-methylated histone H3 at amino acid Lysine number 4, a specific substrate […] of the direct enzymatic activity of the histone demethylases KDM5A and KDM5B from extracts of the ZR-75-1 breast cancer cell line.
# This assay is a fluorometric immunoassay for the quantification of tri-methyl H3K4 extracted from cells treated with test compound and is used as a measure of the cellular inhibition of KDM5A/B.
# Extracts were prepared containing all of the cellular histone material using detergent based lysis and sonication methods. These lysates were subsequently normalized for total protein content using a colorimetric bicinchonic acid assay (MicroBCA Pierce/Thermo Scientific). Normalized cell extracts were then subjected to typical immuno-blotting procedures using NuPage reagents (Life Technologies). Electrophoretically separated histones were then transferred and immobilized using polyvinylidene difluoride membrane (Immobilon-FL Millipore). The amount of tri-methylated lysine 4 of histone H3 was detected using an antibody specific to the tri-methylated state (Cell Signaling Technologies) and quantified on an infrared imager using a densitometry software package (Odyssey CLx, Image Studio, Li-Cor). This background subtracted densitometry value was reported as a ration of the GAPDH amount for that sample and then calculated as a percent of the DMSO treated sample. The software package XL-fit (IDBS) was then used to calculate a relative IC50 value for the dilution series of a given test compound according to the equation: fit=(D+((Vmax*(x^n))/((x^n)+(Km^n)))).
# [1] = 72 hours, read-out: Cellular IC50
# [2] = read-out: Cellular IC50, 72 hours
# JMJD2C, sequence (Q9H3R0 2-372): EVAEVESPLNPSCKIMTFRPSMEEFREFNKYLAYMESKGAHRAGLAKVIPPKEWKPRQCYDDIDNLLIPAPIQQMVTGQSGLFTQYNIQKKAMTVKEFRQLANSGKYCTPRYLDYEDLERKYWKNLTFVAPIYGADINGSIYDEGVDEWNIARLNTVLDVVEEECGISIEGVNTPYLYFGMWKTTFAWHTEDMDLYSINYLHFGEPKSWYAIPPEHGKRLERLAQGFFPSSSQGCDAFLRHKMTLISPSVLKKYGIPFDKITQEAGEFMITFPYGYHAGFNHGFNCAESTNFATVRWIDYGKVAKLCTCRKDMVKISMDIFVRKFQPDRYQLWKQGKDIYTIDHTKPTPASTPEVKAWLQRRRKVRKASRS
# Jarid1A, sequence (P29375 1-1090): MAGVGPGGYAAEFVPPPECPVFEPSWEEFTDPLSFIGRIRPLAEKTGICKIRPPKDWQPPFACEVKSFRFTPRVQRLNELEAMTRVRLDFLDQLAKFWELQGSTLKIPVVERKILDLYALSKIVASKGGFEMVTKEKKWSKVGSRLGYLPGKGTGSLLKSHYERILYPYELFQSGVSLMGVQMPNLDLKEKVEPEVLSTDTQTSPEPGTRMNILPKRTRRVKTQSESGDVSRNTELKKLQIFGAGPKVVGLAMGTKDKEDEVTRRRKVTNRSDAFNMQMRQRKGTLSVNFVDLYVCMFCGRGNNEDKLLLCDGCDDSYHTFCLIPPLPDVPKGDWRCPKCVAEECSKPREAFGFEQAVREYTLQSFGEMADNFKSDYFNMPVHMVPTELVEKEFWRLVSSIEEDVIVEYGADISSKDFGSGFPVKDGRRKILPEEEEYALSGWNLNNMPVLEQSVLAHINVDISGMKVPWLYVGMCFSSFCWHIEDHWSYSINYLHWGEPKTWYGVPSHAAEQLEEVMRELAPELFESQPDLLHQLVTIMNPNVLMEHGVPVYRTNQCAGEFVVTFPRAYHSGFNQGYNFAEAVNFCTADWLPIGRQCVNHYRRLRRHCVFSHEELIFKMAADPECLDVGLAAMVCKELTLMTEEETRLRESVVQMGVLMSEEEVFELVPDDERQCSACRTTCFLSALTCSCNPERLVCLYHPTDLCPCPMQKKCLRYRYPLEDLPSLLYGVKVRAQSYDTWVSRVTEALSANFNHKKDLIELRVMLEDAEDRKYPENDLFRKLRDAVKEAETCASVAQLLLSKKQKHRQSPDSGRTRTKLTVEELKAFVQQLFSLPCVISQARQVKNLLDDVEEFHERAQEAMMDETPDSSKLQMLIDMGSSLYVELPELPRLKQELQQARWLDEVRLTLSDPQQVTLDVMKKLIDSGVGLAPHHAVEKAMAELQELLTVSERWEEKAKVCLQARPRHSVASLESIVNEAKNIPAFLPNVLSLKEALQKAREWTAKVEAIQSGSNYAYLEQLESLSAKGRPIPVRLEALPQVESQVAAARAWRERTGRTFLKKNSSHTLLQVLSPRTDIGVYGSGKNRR
# Jarid1B, sequence (Q9UGL1 2-751): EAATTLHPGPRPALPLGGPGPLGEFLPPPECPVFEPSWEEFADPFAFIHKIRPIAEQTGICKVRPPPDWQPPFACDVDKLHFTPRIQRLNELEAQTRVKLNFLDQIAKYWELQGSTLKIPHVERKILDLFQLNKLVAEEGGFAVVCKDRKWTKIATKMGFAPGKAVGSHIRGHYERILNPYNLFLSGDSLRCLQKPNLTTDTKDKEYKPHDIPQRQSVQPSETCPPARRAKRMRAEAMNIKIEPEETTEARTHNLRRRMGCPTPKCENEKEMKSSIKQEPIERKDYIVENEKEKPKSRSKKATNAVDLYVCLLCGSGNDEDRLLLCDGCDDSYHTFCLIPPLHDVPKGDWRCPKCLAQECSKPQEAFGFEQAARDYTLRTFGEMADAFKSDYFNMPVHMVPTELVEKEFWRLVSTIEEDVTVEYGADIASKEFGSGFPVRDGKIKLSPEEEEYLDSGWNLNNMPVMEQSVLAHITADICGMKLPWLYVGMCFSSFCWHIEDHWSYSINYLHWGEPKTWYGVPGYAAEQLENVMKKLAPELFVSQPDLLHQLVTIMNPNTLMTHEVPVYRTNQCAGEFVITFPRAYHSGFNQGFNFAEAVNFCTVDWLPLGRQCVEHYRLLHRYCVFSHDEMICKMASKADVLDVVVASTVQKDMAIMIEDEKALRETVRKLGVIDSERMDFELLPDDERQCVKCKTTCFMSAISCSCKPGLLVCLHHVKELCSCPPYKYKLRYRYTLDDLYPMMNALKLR
SMILES,IC50 (Jarid1B),IC50 (Jarid1A),IC50 (JMJD2C),IC50 (KDM5A/B; [1]),IC50 (KDM5A/B; [2])
"Cn1nc(Nc2cnccc2C(=O)O)c2ccccc21 [Example 1, 3-[(1-methyl-1H-indazol-3-yl)amino]pyridine-4-carboxylic acid]",< 100 nM,< 100 nM,< 100 nM,1000 to 10000 nM,
"O=C(O)c1ccncc1Nc1noc2ccccc12 [Example 3, 3-(1,2-benzoxazol-3-ylamino]pyridine-4-carboxylic acid]",< 100 nM,< 100 nM,< 100 nM,,
"Cn1nc(Nc2cnccc2C(=O)O)c2cc(F)ccc21 [Example 7, 3-[(5-fluoro-1-methyl-1H-indazol-3-yl)amino]pyridine-4-carboxylic acid]",< 100 nM,< 100 nM,< 100 nM,1000 to 10000 nM,
"CN(C)CCOCCn1nc(Nc2cnccc2C(=O)O)c2ccccc21 [Example 11, 3-[(1-{2-[2-(dimethylamino)ethoxy]ethyl}-1H-indazol-3-yl)amino]pyridine-4-carboxylic acid]",< 100 nM,< 100 nM,< 100 nM,> 10000 nM,
"Cn1nc(Nc2cnccc2C(=O)O)c2c(F)cccc21 [Example 13, 3-[(4-fluoro-1-methyl-1H-indazol-3-yl)amino]pyridine-4-carboxylic acid]",< 100 nM,< 100 nM,< 100 nM,,
"Cn1nc(Nc2cnccc2C(=O)O)c2cc(C(F)(F)F)ccc21 [Example 14, 3-[(5-trifluoromethyl-1-methyl-1H-indazol-3-yl)amino]pyridine-4-carboxylic acid]",< 100 nM,< 100 nM,< 100 nM,1000 to 10000 nM,
"COCCCn1nc(Nc2cnccc2C(=O)O)c2cc(F)ccc21 [Example 17, 3-{[5-fluoro-1-(methoxypropyl)-1H-indazol-3-yl]amino}pyridine-4-carboxylic acid]",< 100 nM,< 100 nM,< 100 nM,> 10000 nM,
"CCCn1nc(Nc2cnccc2C(=O)O)c2cccc(F)c21 [Example 20, 3-[(7-fluoro-1-propyl-1H-indazol-3-yl)amino]pyridine-4-carboxylic acid]",< 100 nM,< 100 nM,< 100 nM,1000 to 10000 nM,
"CN(C)CCOCCn1nc(Nc2cnccc2C(=O)O)c2cc(F)ccc21 [Example 27, 3-[(1-{2-[2-(dimethylamino)ethoxy]ethyl}-5-fluoro-1H-indazol-3-yl)amino]pyridine-4-carboxylic acid, acetic acid salt]",< 100 nM,< 100 nM,< 100 nM,> 10000 nM,
"O=C(O)c1ccncc1Nc1nn(CCC2CC2)c2ccc(F)cc12 [Example 31, 3-{[1-(cyclopropylethyl)-5-fluoro-1H-indazol-3-yl]amino}pyridine-4-carboxylic acid]",< 100 nM,< 100 nM,,1000 to 10000 nM,
"O=C(O)c1ccncc1Nc1nn(CCC(F)(F)F)c2ccc(F)cc12 [Example 32, 3-{[5-fluoro-1-(3,3,3-trifluoropropyl)-1H-indazol-3-yl]amino}pyridine-4-carboxylic acid]",< 100 nM,< 100 nM,,100 to 1000 nM,
"CCCn1nc(Nc2cnccc2C(=O)O)c2cc(Cl)ccc21 [Example 33, 3-[(5-chloro-1-propyl-1H-indazol-3-yl)amino]pyridine-4-carboxylic acid]",< 100 nM,< 100 nM,,100 to 1000 nM,
"O=C(O)c1ccncc1Nc1nn(CC2CC2)c2ccc(Cl)cc12 [Example 34, 3-{[5-chloro-1-(cyclopropylmethyl)-1H-indazol-3-yl]amino}pyridine-4-carboxylic acid]",< 100 nM,< 100 nM,,1000 to 10000 nM,
"O=C(O)c1ccncc1Nc1nn(CCC(F)(F)F)c2ccc(Cl)cc12 [Example 35, 3-{[5-chloro-1-(3,3,3-trifluoropropyl)-1H-indazol-3-yl]amino}pyridine-4-carboxylic acid]",< 100 nM,< 100 nM,,100 to 1000 nM,
"Cc1ccc2c(c1)c(Nc1cnccc1C(=O)O)nn2CC1CC1 [Example 37, 3-{[1-(cyclopropylmethyl)-5-methyl-1H-indazol-3-yl]amino}pyridine-4-carboxylic acid]",< 100 nM,< 100 nM,,100 to 1000 nM,
"CN(C)CCOCCn1nc(Nc2cnccc2C(=O)O)c2cc(Cl)ccc21 [Example 40, 3-[(1-{2-[2-(dimethylamino)ethoxy]ethyl}-5-chloro-1H-indazol-3-yl)amino]pyridine-4-carboxylic acid, trifluoroacetic acid salt]",< 100 nM,< 100 nM,< 100 nM,,

SMILES,IC50 (Jarid1B),IC50 (Jarid1A),IC50 (JMJD2C),IC50 (KDM5A/B; [1]),IC50 (KDM5A/B; [2])
"CN1CCC(CCn2nc(Nc3cnccc3C(=O)O)c3cc(F)ccc32)CC1 [Example 41, 3-({5-fluoro-1-{2-(1-methylpiperidin-4-yl)ethyl]-1H-indazol-3-yl]amino)pyridine-4-carboxylic acid, trifluroacetic acid salt]",< 100 nM,< 100 nM,< 100 nM,,
"O=C(O)c1ccncc1Nc1nn(CCCO)c2ccc(F)cc12 [Example 42, 3-{[5-fluoro-1-(3-hydroxypropyl)-1H-indazol-3-yl]amino}pyridine-4-carboxylic acid]",< 100 nM,< 100 nM,< 100 nM,1000 to 10000 nM,
"CN(C)CCCCn1nc(Nc2cnccc2C(=O)O)c2cc(F)ccc21 [Example 43, 3-({1-[4-(dimethylamino)butyl]-5-fluoro-1H-indazol-3-yl}amino)pyridine-4-carboxylic acid, trifluoroacetic acid salt]",< 100 nM,< 100 nM,< 100 nM,,1000 to 10000 nM
"O=C(O)c1ccncc1Nc1nn(CCCCCO)c2ccc(F)cc12 [Example 44, 3-{[5-fluoro-1-(5-hydroxypentyl)-1H-indazol-3-yl]amino}pyridine-4-carboxylic acid]",< 100 nM,< 100 nM,< 100 nM,,
CCCn1nc(Nc2cnccc2C(=O)O)c2cccc(C)c21 [Example 45],,,100 to 1000 nM,1000 to 10000 nM,
"O=C(O)c1ccncc1Nc1nn(CCC2CCCNC2)c2ccc(F)cc12 (stereo not drawn) [Example 47, 3-({5-fluoro-1-[2-(piperidin-3-yl)ethyl]-1H-indazol-3-yl}amino)pyridine-4-carboxylic acid, trifluoroacetic acid salt]",< 100 nM,< 100 nM,< 100 nM,,> 10000 nM
"O=C(O)c1ccncc1Nc1nn(CC(O)CO)c2ccc(F)cc12 (stereo not drawn) [Example 48, 3-{[1-(2,3-dihydroxypropyl)-5-fluoro-1H-indazol-3-yl]amino}pyridine-4-carboxylic acid]",< 100 nM,< 100 nM,< 100 nM,> 10000 nM,
"O=C(O)c1ccncc1Nc1nn(CCN2CCCC2)c2ccc(F)cc12 [Example 50, 3-({5-fluoro-1-[2-(pyrrolidin-1-yl)ethyl]-1H-indazol-3-yl}amino)pyridine-4-carboxylic acid]",< 100 nM,< 100 nM,< 100 nM,1000 to 10000 nM,
"CC(O)Cn1nc(Nc2cnccc2C(=O)O)c2cc(F)ccc21 (stereo not drawn) [Example 51, 3-{[5-fluoro-1-(2-hydroxypropyl)-1H-indazol-3-yl]amino}pyridine-4-carboxylic acid]",< 100 nM,< 100 nM,< 100 nM,1000 to 10000 nM,
"O=C(O)c1ccncc1Nc1nn(CC(O)C(F)(F)F)c2ccc(F)cc12 (stereo not drawn) [Example 55, 3-{[5-fluoro-1-(3,3,3-trifluoro-2-hydroxypropyl)-1H-indazol-3-yl]amino}pyridine-4-carboxylic acid]",< 100 nM,< 100 nM,< 100 nM,,
"O=C(O)c1ccncc1Nc1nn(CCN2CCOCC2)c2ccc(F)cc12 [Example 56, 3-({5-fluoro-1-[2-(morpholin-1-yl)ethyl]-1H-indazol-3-yl}amino)pyridine-4-carboxylic acid]",< 100 nM,< 100 nM,< 100 nM,,
"O=C(O)c1ccncc1Nc1cn(CCC(F)(F)F)c2ccc(Cl)cc12 [Example 59, 3-{[5-chloro-1-(3,3,3-trifluoropropyl)-1H-indol-3-yl]amino}pyridine-4-carboxylic acid]",< 100 nM,< 100 nM,,1000 to 10000 nM,
"O=C(O)c1ccncc1Nc1nn(C2CCOC2)c2ccc(Cl)cc12 (stereo not drawn) [Example 69, 3-{[5-chloro-1-(tetrahydrofuran-3-yl)-1H-indazol-3-yl]amino}pyridine-4-carboxylic acid]",< 100 nM,< 100 nM,,1000 to 10000 nM,
"N#CNC(=O)c1ccncc1Nc1nn(CCN2CCCC2)c2ccc(F)cc12 [Example 77, N-cyano-3-({5-fluoro-1-[2-(pyrrolidin-1-yl)ethyl]-1H-indazol-3-yl}amino)pyridine-4-carboxamide]",< 100 nM,< 100 nM,< 100 nM,,
"O=C(O)c1ccncc1Nc1nn(CCN2CCCC2)c2ccc(Cl)cc12 [Example 78, 3-({5-chloro-1-[2-(pyrrolidin-1-yl)ethyl]-1H-indazol-3-yl}amino)pyridine-4-carboxylic acid]",< 100 nM,< 100 nM,< 100 nM,,
